Measured values published in patent US20230332232A1, “COMPOSITIONS AND METHODS FOR DIAGNOSING AND TREATING A DYSTONIA” (Duke University, priority 2020, published 2023).

How the values were obtained:
[1] = tested on: DYT1 knockin (Tor1a^delGAG/+) murine embryonic fibroblasts (MEFs); experiment: Untargeted LC/MS/MS proteomics of EVs from DYT1 MEFs exposed 24 hours to drug, compared with untreated DYT1 (Het) MEFs; assay type: cell-based, mouse
[2] = tested on: wild-type (WT) murine embryonic fibroblasts (MEFs); experiment: microRNA-seq of EVs from WT MEFs treated with drug, compared with non-treated WT MEFs; assay type: cell-based, mouse; conditions: for ISRIB Direction Same as dE?: EVs of WT MEFs
Experimental: In addition to proteomic analysis, total RNA-seq and microRNA-seq was performed on RNA isolated in parallel from the EV samples of Cohort 2. As with the proteomic analysis, one biological replicate was prepared from 3 distinct biological clonal cell lines for each genotype. Here, EVs were isolated from conditioned cell culture media by 18 hour ultracentrifugation at 100,000 g. RNA was extracted using the Qiagen miRNeasy Micro Kit (Cat. No. 217084) according to the manufacturer's protocol. Two RNA fractions were extracted from each sample, one enriched in coding and non-coding RNA species>200 nt (“Total RNA” fraction) and one enriched for small RNAs<200 nt (“miRNA” fraction).
RNA samples were then submitted to the Duke Sequencing and Genomic Technologies shared resource for further quality control and sequencing. Samples were assessed for concentration and integrity by Qubit and Fragment Analyzer. The miRNA fractions were 4.16 ng/μL-47.57 ng/μL and total RNA fractions were 3.8 ng/μL-43.6 ng/μL. The small RNA library was prepared using the QIAseq miRNA Library Kit (Cat No./ID: 331505) and sequenced on the Illumina NextSeq 500 High-Output platform with 75 bp single-reads. The total RNA library was prepared using the Illumina TruSeq Stranded Total RNA-seq Kit with Ribozero Gold ribosomal RNA reduction and sequenced on the Illumina NovaSeq 6000 S1 platform with 100 bp paired-end reads. Sequencer lane pooling and read depth are attached in the Excel data summary (See “RNA QC” Tab).
Data processing and analysis were performed in collaboration with the Duke Genomic Analysis and Bioinformatics shared resource. RNA-seq data was processed using the TrimGalore toolkit (http://www.bioinformatics.babraham.ac.uk/projects/trim_galore), which employs Cutadapt(Martin M. (2011) EMBnet.journal. 17(1):10-12) to trim low quality bases and Illumina sequencing adapters from the 3′ end of the reads. Only reads that were 20 nt or longer after trimming were kept for further analysis. Reads were mapped to the mouse genome and transcriptome (Kersey P J, et al. (2012) Nucleic Acids Res. 40(Database issue):D91-97) using the STAR RNA-seq alignment tool (Dobin A, et al. (2013). Bioinformatics. 29(1):15-21). If the reads mapped to a single genomic location, then they were kept for subsequent analysis. Gene counts were compiled using the HTSeq tool (http://www-huber.embl.de/users/anders/HTSeq/). Only genes that had at least 10 reads in any given library were used in subsequent analysis. Normalization and differential expression was carried out using the DESeq26 Bioconductor (Huber W, et al. (2015) Nat Methods. 12(2):115-121) package with the R statistical programming environment (www.r-project.org). The false discovery rate was calculated to control for multiple hypothesis testing and p-values were adjusted to an FDR of 5%.
694 miRNAs were initially examined with respect to QC, genotype, RTV effects, and ISRIB effects. This subset was the “Full miRNA” subset. FIG. 9A and FIG. 9B show the RTV effect on EV composition in DYT1 cells compared to WT cells for 279 miRNAs, respectively.

WT TorsinA = conditions: cited from earlier work
[3] = ISRIB-treated vs non-treated WT MEF EVs

O=C(/C=C/c1ccccc1)NC(NC(=S)Nc1cccc2cccnc12)C(Cl)(Cl)Cl (stereo not shown) [SAL, Salubrinal]
SAL Direction Opposite ISRIB? ([1]; EV protein: ATP- binding cassette sub-family [?] member 1): yes
SAL Direction Opposite ISRIB? ([1]; EV protein: Nerine arginine-rich splicing factor [?]): yes

O=C(COc1ccc(Cl)cc1)NC1CCC(NC(=O)COc2ccc(Cl)cc2)CC1 (stereo not shown) [ISRIB]
mmu-miR-147-5p: ISRIB Direction Same as dE? [2, 3]: yes
mmu-miR-147-5p: ISRIBvWT Z Score [2, 3]: −0.31
mmu-miR-181a-1-3p: ISRIBvWT Z Score [2, 3]: −0.20
mmu-miR-331-5p: ISRIBvWT Z Score [2, 3]: 0.56
mmu-miR-668-3p: ISRIBvWT Z Score [2, 3]: −1.49
mmu-miR-1930-5p: ISRIB Direction Same as dE? [2, 3]: yes
mmu-miR-1930-5p: ISRIBvWT Z Score [2, 3]: 0.71
mmu-miR-1943-5p: ISRIBvWT Z Score [2, 3]: −1.07
mmu-miR-1955-5p: ISRIBvWT Z Score [2, 3]: 1.21
mmu-miR-3072-5p: ISRIBvWT Z Score [2, 3]: 0.00
mmu-miR-3076-3p: ISRIBvWT Z Score [2, 3]: 0.25
mmu-miR-3088-3p: ISRIBvWT Z Score [2, 3]: −0.45
mmu-miR-6936-3p: ISRIBvWT Z Score [2, 3]: −0.38
mmu-miR-7224-3p: ISRIB Direction Same as dE? [2, 3]: yes
mmu-miR-7224-3p: ISRIBvWT Z Score [2, 3]: −1.07
mmu-miR-467d-3p: ISRIB Direction Same as dE? [2, 3]: yes
mmu-miR-467d-3p: ISRIBvWT Z Score [2, 3]: −0.71
ISRIB Direction Same as dE? ([2]; mmu-let-7f-5p): yes
ISRIB Direction Same as dE? ([2]; mmu-let-7i-5p): yes
ISRIB Direction Same as dE? ([2]; mmu-miR-30e-5p): yes
ISRIB Direction Same as dE? ([2]; mmu-miR-19b-3p): yes
ISRIB Direction Same as dE? ([2]; mmu-miR-22-3p): yes
ISRIB Direction Same as dE? ([2]; mmu-miR-26b-Sp): yes
ISRIB Direction Same as dE? ([2]; mmu-miR-30a-5p): yes
ISRIB Direction Same as dE? ([2]; mmu-miR-30c-5p): yes
ISRIB Direction Same as dE? ([2]; mmu-miR-31-5p): yes
ISRIB Direction Same as dE? ([2]; mmu-miR-34a-5p): yes
ISRIB Direction Same as dE? ([2]; mmu-miR-34c-5p): yes
ISRIB Direction Same as dE? ([2]; mmu-miR-93-5p): yes
ISRIB Direction Same as dE? ([2]; mmu-miR-96-5p): yes
ISRIB Direction Same as dE? ([2]; mmu-miR-103-3p): yes
ISRIB Direction Same as dE? ([2]; mmu-miR-125b-1-3p): yes
ISRIB Direction Same as dE? ([2]; mmu-miR-130b-3p): yes
ISRIB Direction Same as dE? ([2]; mmu-miR-135a-5p): yes
ISRIB Direction Same as dE? ([2]; mmu-miR-140-3p): yes
ISRIB Direction Same as dE? ([2]; mmu-miR-148a-3p): yes
ISRIB Direction Same as dE? ([2]; mmu-miR-182-5p): yes
ISRIB Direction Same as dE? ([2]; mmu-miR-183-5p): yes
ISRIB Direction Same as dE? ([2]; mmu-miR-187-3p): yes
ISRIB Direction Same as dE? ([2]; mmu-miR-192-5p): yes
ISRIB Direction Same as dE? ([2]; mmu-miR-199a-3p): yes
ISRIB Direction Same as dE? ([2]; mmu-miR-199b-3p): yes
ISRIB Direction Same as dE? ([2]; mmu-miR-296-3p): yes
ISRIB Direction Same as dE? ([2]; mmu-miR-298-5p): yes
ISRIB Direction Same as dE? ([2]; mmu-miR-344-3p): yes
ISRIB Direction Same as dE? ([2]; mmu-miR-362-3p): yes
ISRIB Direction Same as dE? ([2]; mmu-miR-362-5p): yes
ISRIB Direction Same as dE? ([2]; mmu-miR-532-5p): yes
ISRIB Direction Same as dE? ([2]; mmu-miR-542-5p): yes
ISRIB Direction Same as dE? ([2]; mmu-miR-671-5p): yes
ISRIB Direction Same as dE? ([2]; mmu-miR-1291): yes
ISRIB Direction Same as dE? ([2]; mmu-miR-3535): yes
ISRIB Direction Same as dE? ([2]; mmu-miR-5121): yes
ISRIB Direction Same as dE? ([2]; mmu-miR-30h-5p): yes
ISRIB Direction Same as dE? ([2]; mmu-miR-344d-3p): yes
subcellular localization of WT TorsinA (WT TorsinA): alter the normal subcellular localization of WT TorsinA in a way that was more similar to the distribution of dE TorsinA in DYT1
